{"source": "PubChem BioAssay AID330", "about": "(DTP/NCI, 2004)", "test_system": "P388 leukemia ip, CD2F1 mice, survival T/C", "experiment": "NCI In Vivo Anticancer Drug Screen. Data for tumor model P388 Leukemia (intraperitoneal) in CD2F1 (CDF1) mice", "settings": "endpoint: median survival time, higher = longer survival", "in_short": "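Mice carrying the transplanted tumor received test compound or vehicle. Survival was recorded in each group, and the value is the treated-group measurement divided by that of the vehicle-treated control group.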", "key": {"[1]": {"settings": "dose: 50.0 mg/kg/injection, schedule: Q01DX005 (ip), vehicle: saline with Tween-80"}, "[2]": {"settings": "dose: 100.0 mg/kg/injection, schedule: Q01DX005 (ip), vehicle: saline with Tween-80"}, "[3]": {"settings": "dose: 200.0 mg/kg/injection, schedule: Q01DX005 (ip), vehicle: saline with Tween-80"}, "[4]": {"settings": "dose: 12.5 mg/kg/injection, schedule: Q01DX009 (ip), vehicle: saline"}, "[5]": {"settings": "dose: 25.0 mg/kg/injection, schedule: Q01DX009 (ip), vehicle: saline"}, "[6]": {"settings": "dose: 50.0 mg/kg/injection, schedule: Q01DX009 (ip), vehicle: saline"}, "[7]": {"settings": "dose: 100.0 mg/kg/injection, schedule: Q01DX009 (ip), vehicle: saline"}}, "note": "Values joined by “and” are separate entries in the source; they are usually repeats but may differ in a detail not shown here. Identical values can stand only once. Inconclusive results and toxic doses are left out."}
{"smiles": "O=C(N/C(=C/c1ccccc1)C(=O)N1CCN(C(=O)/C(=C\\c2ccccc2)NC(=O)c2ccccc2)CC1)c1ccccc1", "values": [{"measurement": "T/C", "setting": "[1]", "result": "93 % of control"}, {"measurement": "T/C", "setting": "[2]", "result": "92 % of control"}, {"measurement": "T/C", "setting": "[3]", "result": "93 % of control"}]}
{"smiles": "CNS(=O)(=O)O", "values": [{"measurement": "T/C", "setting": "[4]", "result": "86 % of control"}, {"measurement": "T/C", "setting": "[5]", "result": "104 % of control"}, {"measurement": "T/C", "setting": "[6]", "result": "105 % of control"}, {"measurement": "T/C", "setting": "[7]", "result": "100 % of control"}]}
{"smiles": "CCSC(=S)N(CC)c1nc2ccccc2o1", "values": [{"measurement": "T/C", "setting": "dose: 100.0 mg/kg/injection, schedule: Q04DX002 (ip), vehicle: saline with Tween-80", "result": "105 % of control"}, {"measurement": "T/C", "setting": "dose: 200.0 mg/kg/injection, schedule: Q04DX002 (ip), vehicle: saline with Tween-80", "result": "113 % of control"}, {"measurement": "T/C", "setting": "dose: 400.0 mg/kg/injection, schedule: Q04DX002 (ip), vehicle: saline with Tween-80", "result": "122 % of control"}]}
{"smiles": "CC1(C)C(=O)CCC2(C)C1CC(=O)C1(C)C2CCC2(C)C(c3ccoc3)OC(=O)C3OC321", "note": "(centres undefined)", "values": [{"measurement": "T/C", "setting": "dose: 0.5 mg/kg/injection, schedule: Q01DX009 (ip), vehicle: Klucel (hydroxypropylcellulose) (HPC)", "result": "100 % of control and 102 % of control"}, {"measurement": "T/C", "setting": "dose: 1.0 mg/kg/injection, schedule: Q01DX009 (ip), vehicle: Klucel (hydroxypropylcellulose) (HPC)", "result": "102 % of control"}, {"measurement": "T/C", "setting": "dose: 2.0 mg/kg/injection, schedule: Q01DX009 (ip), vehicle: Klucel (hydroxypropylcellulose) (HPC)", "result": "92 % of control and 96 % of control"}, {"measurement": "T/C", "setting": "dose: 4.0 mg/kg/injection, schedule: Q01DX009 (ip), vehicle: Klucel (hydroxypropylcellulose) (HPC)", "result": "98 % of control and 93 % of control"}, {"measurement": "T/C", "setting": "dose: 8.0 mg/kg/injection, schedule: Q01DX009 (ip), vehicle: Klucel (hydroxypropylcellulose) (HPC)", "result": "98 % of control and 86 % of control"}]}
{"smiles": "C=C1C(=O)OCC1C(=O)O", "note": "(centres undefined)", "values": [{"measurement": "T/C", "setting": "dose: 8.0 mg/kg/injection, schedule: Q01DX009 (ip), vehicle: saline", "result": "121 % of control"}, {"measurement": "T/C", "setting": "dose: 16.0 mg/kg/injection, schedule: Q01DX009 (ip), vehicle: saline", "result": "114 % of control"}, {"measurement": "T/C", "setting": "dose: 64.0 mg/kg/injection, schedule: Q01DX009 (ip), vehicle: saline", "result": "103 % of control"}]}
{"smiles": "CCCCN(CCCC)CCCNc1c2c(nc3ccccc13)CCCC2", "values": [{"measurement": "T/C", "setting": "dose: 12.5 mg/kg/injection, schedule: Q01DX005 (ip), vehicle: saline", "result": "95 % of control"}, {"measurement": "T/C", "setting": "dose: 25.0 mg/kg/injection, schedule: Q01DX005 (ip), vehicle: saline", "result": "104 % of control"}, {"measurement": "T/C", "setting": "dose: 50.0 mg/kg/injection, schedule: Q01DX005 (ip), vehicle: saline", "result": "100 % of control"}]}
{"smiles": "CCC[CH2][Sn]([CH2]CCC)([CH2]CCC)[CH2]CCNCCCN(C)C", "values": [{"measurement": "T/C", "setting": "dose: 6.25 mg/kg/injection, schedule: Q01DX009 (ip), vehicle: saline", "result": "96 % of control"}, {"measurement": "T/C", "setting": "[4]", "result": "97 % of control"}, {"measurement": "T/C", "setting": "[5]", "result": "96 % of control"}, {"measurement": "T/C", "setting": "[6]", "result": "90 % of control"}, {"measurement": "T/C", "setting": "[7]", "result": "86 % of control"}]}
{"smiles": "COc1ccc2cc1Oc1ccc(cc1)CC1c3cc(c(OC)cc3CCN1C)Oc1c(O)c(OC)cc3c1C(C2)N(C)CC3", "note": "(centres undefined)", "values": [{"measurement": "T/C", "setting": "dose: 15.0 mg/kg/injection, schedule: Q01DX009 (ip), vehicle: Klucel (hydroxypropylcellulose) (HPC)", "result": "95 % of control"}, {"measurement": "T/C", "setting": "dose: 30.0 mg/kg/injection, schedule: Q01DX009 (ip), vehicle: Klucel (hydroxypropylcellulose) (HPC)", "result": "93 % of control"}, {"measurement": "T/C", "setting": "dose: 60.0 mg/kg/injection, schedule: Q01DX009 (ip), vehicle: Klucel (hydroxypropylcellulose) (HPC)", "result": "97 % of control"}]}
{"smiles": "[Cl][Pt+2][Cl].[NH-]C1CCCC1.[NH-]C1CCCC1", "values": [{"measurement": "T/C", "setting": "dose: 20.0 mg/kg/injection, schedule: Q01DX009 (ip), vehicle: Klucel (hydroxypropylcellulose) (HPC)", "result": "156 % of control and 169 % of control"}, {"measurement": "T/C", "setting": "dose: 40.0 mg/kg/injection, schedule: Q01DX009 (ip), vehicle: Klucel (hydroxypropylcellulose) (HPC)", "result": "156 % of control and 168 % of control and 175 % of control"}, {"measurement": "T/C", "setting": "dose: 80.0 mg/kg/injection, schedule: Q01DX009 (ip), vehicle: Klucel (hydroxypropylcellulose) (HPC)", "result": "179 % of control and 193 % of control and 220 % of control"}, {"measurement": "T/C", "setting": "dose: 160.0 mg/kg/injection, schedule: Q01DX009 (ip), vehicle: Klucel (hydroxypropylcellulose) (HPC)", "result": "182 % of control and 233 % of control"}, {"measurement": "T/C", "setting": "dose: 320.0 mg/kg/injection, schedule: Q01DX009 (ip), vehicle: Klucel (hydroxypropylcellulose) (HPC)", "result": "110 % of control and 186 % of control and 229 % of control"}]}
{"smiles": "CCOc1cccc(/C=N/N=C2\\C(=O)Nc3c(Cl)cc(Cl)cc32)c1O", "values": [{"measurement": "T/C", "setting": "[1]", "result": "89 % of control"}, {"measurement": "T/C", "setting": "[2]", "result": "92 % of control"}, {"measurement": "T/C", "setting": "[3]", "result": "91 % of control"}]}
{"smiles": "CC(=O)Nc1ccc(C(=O)C(C)=O)cc1", "values": [{"measurement": "T/C", "setting": "dose: 50.0 mg/kg/injection, schedule: Q01DX009 (ip), vehicle: saline with Tween-80", "result": "100 % of control"}, {"measurement": "T/C", "setting": "dose: 100.0 mg/kg/injection, schedule: Q01DX009 (ip), vehicle: saline with Tween-80", "result": "104 % of control"}, {"measurement": "T/C", "setting": "dose: 200.0 mg/kg/injection, schedule: Q01DX009 (ip), vehicle: saline with Tween-80", "result": "97 % of control"}]}
{"smiles": "CC(=O)NCc1cccc([N+](=O)[O-])c1", "values": [{"measurement": "T/C", "setting": "dose: 25.0 mg/kg/injection, schedule: Q01DX005 (ip), vehicle: saline with Tween-80", "result": "100 % of control"}, {"measurement": "T/C", "setting": "[1]", "result": "103 % of control"}, {"measurement": "T/C", "setting": "[2]", "result": "100 % of control"}, {"measurement": "T/C", "setting": "[3]", "result": "105 % of control"}]}
